Measured values reported in patent US10584283B2, “Preservative for technical products” (Schülke & Mayr GmbH, priority 2015, dated 2020).

Assay: Storage stability in polyethylene bottles, Experiment 6 (other alkalizing agents)
Format: physicochemical
Experimental: It was also investigated whether the stabilization achieved according to the invention with the particularly preferred agent MIPA is also achieved with other alkalizing agents.
Samples of the solutions were stored in bottles made of polyethylene at −5° C., 25° C. and 40° C. in order to investigate the stability.

Storage stability / compatibility (conclusion in words): incompatible with TTT
SMILES: CCCCCCCCCCCCN(CCCN)CCCN [N,N-bis(3-aminopropyl)-dodecylamine]
